The values below come from article PMC6660996 (Bioorganic & medicinal chemistry, 2019).

pIC50: −log10 of the molar value. Where two headings read alike, the source gives them in different places. A value given as a limit tells only on which side of the number the result lay.

Assay [1] relates to T. gondii (tachyzoites). The settings on record: cited from earlier work; for T. gondii growth ED50: tachyzoites, already published data, ref 47-55 (see b12).
The subject of assay [2] is hypervirulent RH strain of T. gondii. The settings on record: cited from earlier work.
Another assay deals with T. cruzi (amastigotes). As to the kind of experiment: T. cruzi amastigote assays. The class given is cell-based. The settings on record: Trypanosoma cruzi.
Assay [3] relates to T. gondii (tachyzoites). The assay is described as follows: T. gondii tachyzoites assays. The class given is cell-based. The settings on record: Toxoplasma gondii, read-out: T. gondii cells ED50, tachyzoites; Table 3.
Where [4] appears, read: read-out: T. cruzi cells ED50, amastigotes, Table 3.

Turning to `CCCCCCCCC(F)(P(=O)(O)O)P(=O)(O)O` [Compound 10], in the assay on T. gondii (tachyzoites) [1], the “T. gondii growth ED50” value is 2.67 µM.

`CCCCCCCCCC(F)(P(=O)(O)O)P(=O)(O)O` [Compound 11]: the “T. gondii growth ED50” value in the assay with T. gondii (tachyzoites) [1] was over 10.0 µM.

Turning to `CCCCCCNCC(P(=O)(O)O)P(=O)(O)O` [Compound 12], the “T. gondii growth ED50” value in the assay on T. gondii (tachyzoites) [1] is 9.4 µM.

Take `CCCCCCCNCC(P(=O)(O)O)P(=O)(O)O` [Compound 13]: the “T. gondii growth ED50” value with T. gondii (tachyzoites) [1] is over 50.0 µM.

As to `CCCCCCCCCCCCNCC(P(=O)(O)O)P(=O)(O)O` [Compound 14], the “T. gondii growth ED50” value in the assay on T. gondii (tachyzoites) [1] is 6.23 µM.

Consider `CCCCCCCCNCC(O)(P(=O)(O)O)P(=O)(O)O` [Compound 15], for which the “T. gondii growth ED50” value in the assay with T. gondii (tachyzoites) [1] was 2.0 µM.

With `CCCCCCCSCC(P(=O)(O)O)P(=O)(O)O` [Compound 16], the “T. gondii growth ED50” value in the assay with T. gondii (tachyzoites) [1] was 0.97 µM. Moreover, the “effect in combination with statins in in vivo assays” value in assay [2] was “strong synergistic effect”.

In the case of `CCCCCCCCCCSCC(P(=O)(O)O)P(=O)(O)O` [Compound 17], in the assay on T. gondii (tachyzoites) [1], the “T. gondii growth ED50” value was 1.8 µM.

Regarding `CCCCCCCCCCS(=O)(=O)CC(P(=O)(O)O)P(=O)(O)O` [Compound 18], the “in vitro activity against T. gondii ED50” value in the assay with T. gondii (tachyzoites) [1] (tachyzoites proliferation) was 0.1 µM. The “T. gondii growth ED50” value in the assay on T. gondii (tachyzoites) [1] is 0.11 µM.

For `CCCCCCCC[S+](C)CC(P(=O)(O)O)P(=O)(O)O.F[B-](F)(F)F` (stereo not shown) [Compound 19], the “T. gondii growth ED50” value in the assay with T. gondii (tachyzoites) [1] was 7.0 µM.

Turning to `CCCNC(P(=O)(O)O)P(=O)(O)O` [Compound 21, 1-n-Propylaminomethyl-1,1-bisphosphonic acid], the pIC50 with T. cruzi (amastigotes) (read-out: T. cruzi cells ED50) was under 5.00.

Take `CCCCNC(P(=O)(O)O)P(=O)(O)O` [Compound 22, 1-n-Butylaminomethyl-1,1-bisphosphonic acid]: the pIC50 in the assay on T. cruzi (amastigotes) (read-out: T. cruzi cells ED50) is under 5.00.

Turning to `CCCCCNC(P(=O)(O)O)P(=O)(O)O` [Compound 23, 1-n-Pentylaminomethyl-1,1-bisphosphonic acid], in the assay on T. cruzi (amastigotes) (setting [4]), the pIC50 was under 5.00.

As to `CCCCCCNC(P(=O)(O)O)P(=O)(O)O` [Compound 24, 1-n-Hexylaminomethyl-1,1-bisphosphonic acid], the pIC50 in the assay with T. cruzi (amastigotes) (setting [4]) was under 5.00.

Consider `CCCCCCCNC(P(=O)(O)O)P(=O)(O)O` [Compound 25, 1-n-Heptylaminomethyl-1,1-bisphosphonic acid], for which, in the assay with T. cruzi (amastigotes) (setting [4]), the pIC50 is under 5.00.

Turning to `CCCCCCCCNC(P(=O)(O)O)P(=O)(O)O` [Compound 26, 1-n-Octylaminomethyl-1,1-bisphosphonic acid], in the assay on T. cruzi (amastigotes) (setting [4]), the pIC50 is under 5.00.

For the molecule `CCCCCCCCCNC(P(=O)(O)O)P(=O)(O)O` [Compound 27, 1-n-Nonylaminomethyl-1,1-bisphosphonic acid], in the assay on T. cruzi (amastigotes) (setting [4]), the pIC50 is under 5.00.

For `CCCCCCCCCCNC(P(=O)(O)O)P(=O)(O)O` [Compound 28, 1-n-Decylaminomethyl-1,1-bisphosphonic acid], the pIC50 in the assay on T. cruzi (amastigotes) (setting [4]) is 5.28.

Consider `O=P(O)(O)C(NC1CCCC1)P(=O)(O)O` [Compound 30, (Cyclopentylamino)methyl-1,1-bisphosphonic acid], for which, in the assay with T. cruzi (amastigotes) (setting [4]), the pIC50 is under 5.00.

For the molecule `O=P(O)(O)C(NC1CCCCC1)P(=O)(O)O` [Compound 31, (Cyclohexylamino)methyl-1,1-bisphosphonic acid], in the assay with T. cruzi (amastigotes) (setting [4]), the pIC50 is under 5.00.

Consider `O=P(O)(O)C(NC1CCCCCC1)P(=O)(O)O` [Compound 32, (Cycloheptylamino)methyl-1,1-bisphosphonic acid], for which the pIC50 in the assay on T. cruzi (amastigotes) (setting [4]) was under 5.00.

`O=P(O)(O)C(N1CCCCC1)P(=O)(O)O` [Compound 33, (Piperidin-1-yl)methyl-1,1-bisphosphonic acid]: the pIC50 in the assay on T. cruzi (amastigotes) (setting [4]) was under 5.00.

Take `O=P(O)(O)C(CNC1CCCC1)P(=O)(O)O` [Compound 47, 1-[(Cyclopentylamino)ethyl] 1,1-bisphosphonic acid]: in the assay on T. cruzi (amastigotes) (setting [4]), the pIC50 is under 5.00.

As to `O=P(O)(O)C(CNC1CCCCCC1)P(=O)(O)O` [Compound 48, 1-[(Cycloheptylamino)ethyl] 1,1-bisphosphonic acid], in the assay with T. cruzi (amastigotes) (setting [4]), the pIC50 is under 5.00.

Turning to `CC1CCC(NCC(P(=O)(O)O)P(=O)(O)O)CC1` (stereo not shown) [Compound 49, 1-[(4-methylcyclohexylamino)ethyl] 1,1-bisphosphonic acid], in the assay with T. cruzi (amastigotes) (setting [4]), the pIC50 was under 5.00.

Regarding `CCCCCCCCCCCS(=O)(=O)CC(P(=O)(O)O)P(=O)(O)O` [Compound 56, 1-[(n-Undecylsulfonyl)ethyl]-1,1-biphosphonic acid], in the assay with T. gondii (tachyzoites) [3], the pIC50 was 6.28.
